Measurements from PubChem BioAssay AID330 (DTP/NCI, 2004).
Where “and” joins values, the source holds several entries; their conditions need not be identical. Equal values may be shown once. Toxic doses and inconclusive results are not listed.

Test system: P388 leukemia ip, CD2F1 mice, survival T/C
Assay: NCI In Vivo Anticancer Drug Screen. Data for tumor model P388 Leukemia (intraperitoneal) in CD2F1 (CDF1) mice
Settings: endpoint: median survival time, higher = longer survival
Summary of the method: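 Mice carrying the transplanted tumor received test compound or vehicle. Survival was recorded in each group, and the value is the treated-group measurement divided by that of the vehicle-treated control group.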

[1] = dose: 50.0 mg/kg/injection, schedule: Q01DX005 (ip), vehicle: saline with Tween-80
[2] = dose: 100.0 mg/kg/injection, schedule: Q01DX005 (ip), vehicle: saline with Tween-80
[3] = dose: 200.0 mg/kg/injection, schedule: Q01DX005 (ip), vehicle: saline with Tween-80
[4] = dose: 60.0 mg/kg/injection, schedule: Q01DX005 (ip), vehicle: saline with Tween-80
[5] = dose: 120.0 mg/kg/injection, schedule: Q01DX005 (ip), vehicle: saline with Tween-80
[6] = dose: 240.0 mg/kg/injection, schedule: Q01DX005 (ip), vehicle: saline with Tween-80
[7] = dose: 50.0 mg/kg/injection, schedule: Q01DX005 (ip), vehicle: Klucel (hydroxypropylcellulose) (HPC)
[8] = dose: 100.0 mg/kg/injection, schedule: Q01DX005 (ip), vehicle: Klucel (hydroxypropylcellulose) (HPC)
[9] = dose: 200.0 mg/kg/injection, schedule: Q01DX005 (ip), vehicle: Klucel (hydroxypropylcellulose) (HPC)
[10] = dose: 50.0 mg/kg/injection, schedule: Q01DX009 (ip), vehicle: Klucel (hydroxypropylcellulose) (HPC)
[11] = dose: 100.0 mg/kg/injection, schedule: Q01DX009 (ip), vehicle: Klucel (hydroxypropylcellulose) (HPC)
[12] = dose: 200.0 mg/kg/injection, schedule: Q01DX009 (ip), vehicle: Klucel (hydroxypropylcellulose) (HPC)
[13] = dose: 100.0 mg/kg/injection, schedule: Q04DX003 (ip), vehicle: saline with Tween-80
[14] = dose: 200.0 mg/kg/injection, schedule: Q04DX003 (ip), vehicle: saline with Tween-80
[15] = dose: 400.0 mg/kg/injection, schedule: Q04DX003 (ip), vehicle: saline with Tween-80
[16] = dose: 100.0 mg/kg/injection, schedule: Q01DX001 (ip), vehicle: saline with Tween-80
[17] = dose: 200.0 mg/kg/injection, schedule: Q01DX001 (ip), vehicle: saline with Tween-80
[18] = dose: 400.0 mg/kg/injection, schedule: Q01DX001 (ip), vehicle: saline with Tween-80

SMILES: COC(=O)N1C=Cc2ccccc2C1(C#N)C(=S)SC (stereo unspecified)
- T/C [1]: 102 % of control
- T/C [2]: 93 % of control
- T/C [3]: 91 % of control

SMILES: CC(=O)Oc1ccc(CO)cc1OC(C)=O
- T/C (dose: 50.0 mg/kg/injection, schedule: Q01DX005 (ip), vehicle: saline): 101 % of control and 102 % of control
- T/C (dose: 100.0 mg/kg/injection, schedule: Q01DX005 (ip), vehicle: saline): 106 % of control and 108 % of control

SMILES: Cc1cc(C)n(-c2ccc(S(=O)(=O)N3CCC(=O)N(Cc4ccccc4)C3=S)cc2)n1
- T/C [1]: 100 % of control
- T/C [2]: 93 % of control
- T/C [3]: 93 % of control

SMILES: O=C(c1ccccc1)c1ccccc1-c1ccccc1C(=O)c1ccccc1
- T/C (dose: 50.0 mg/kg/injection, schedule: Q01DX009 (ip), vehicle: saline with Tween-80): 102 % of control
- T/C (dose: 100.0 mg/kg/injection, schedule: Q01DX009 (ip), vehicle: saline with Tween-80): 92 % of control
- T/C (dose: 200.0 mg/kg/injection, schedule: Q01DX009 (ip), vehicle: saline with Tween-80): 87 % of control

SMILES: CCOC(=O)NNS(=O)(=O)CCC(N)C(=O)O (stereo unspecified)
- T/C (dose: 12.5 mg/kg/injection, schedule: Q01DX009 (ip), vehicle: water): 98 % of control
- T/C (dose: 25.0 mg/kg/injection, schedule: Q01DX009 (ip), vehicle: water): 88 % of control and 95 % of control
- T/C (dose: 50.0 mg/kg/injection, schedule: Q01DX009 (ip), vehicle: water): 87 % of control and 90 % of control
- T/C (dose: 100.0 mg/kg/injection, schedule: Q01DX009 (ip), vehicle: water): 93 % of control
- T/C (dose: 200.0 mg/kg/injection, schedule: Q01DX009 (ip), vehicle: water): 109 % of control and 86 % of control
- T/C (dose: 400.0 mg/kg/injection, schedule: Q01DX009 (ip), vehicle: water): 111 % of control

SMILES: COC(=O)c1nc2n[nH]c(N)c2c2c1CCCCCCCCCC2
- T/C [4]: 99 % of control
- T/C [5]: 93 % of control
- T/C [6]: 94 % of control

SMILES: COc1ccc2[nH]c3c(C)c4cc[n+](C)cc4c(C)c3c2c1
- T/C (dose: 3.13 mg/kg/injection, schedule: Q01DX009 (ip), vehicle: saline): 153 % of control
- T/C (dose: 6.25 mg/kg/injection, schedule: Q01DX009 (ip), vehicle: saline): 100 % of control

SMILES: CCOC(=O)C1CSC2(CCCC2)N1 (stereo unspecified)
- T/C (dose: 100.0 mg/kg/injection, schedule: Q04DX002 (ip), vehicle: saline with Tween-80): 110 % of control
- T/C (dose: 200.0 mg/kg/injection, schedule: Q04DX002 (ip), vehicle: saline with Tween-80): 109 % of control
- T/C (dose: 400.0 mg/kg/injection, schedule: Q04DX002 (ip), vehicle: saline with Tween-80): 100 % of control

SMILES: CCN1C(=O)NC(=O)C(C)(N2CCCCC2)C1=O (stereo unspecified)
- T/C [7]: 108 % of control
- T/C [8]: 103 % of control
- T/C [9]: 100 % of control

SMILES: NC(CCC(N)C(=O)c1ccccc1)C(=O)c1ccccc1 (stereo unspecified)
- T/C [4]: 98 % of control
- T/C [5]: 101 % of control
- T/C [6]: 93 % of control

SMILES: COc1ccc(C2CC(c3ccccc3)=Nc3ccccc3S2)cc1OC (stereo unspecified)
- T/C [10]: 102 % of control
- T/C [11]: 90 % of control
- T/C [12]: 96 % of control

SMILES: O=C(O)/C=C/CCCCCCO
- T/C (dose: 100.0 mg/kg/injection, schedule: Q04DX002 (ip), vehicle: saline + alcohol): 91 % of control
- T/C (dose: 200.0 mg/kg/injection, schedule: Q04DX002 (ip), vehicle: saline + alcohol): 100 % of control
- T/C (dose: 400.0 mg/kg/injection, schedule: Q04DX002 (ip), vehicle: saline + alcohol): 106 % of control

SMILES: COCC/C=C/CCl
- T/C [13]: 100 % of control
- T/C [14]: 100 % of control
- T/C [15]: 95 % of control

SMILES: CCOCCN1CCN(CCCN2c3ccccc3Sc3ccc(C(F)(F)F)cc32)CC1
- T/C (dose: 6.25 mg/kg/injection, schedule: Q04DX003 (ip), vehicle: saline): 104 % of control and 88 % of control
- T/C (dose: 12.5 mg/kg/injection, schedule: Q04DX003 (ip), vehicle: saline): 110 % of control and 118 % of control
- T/C (dose: 25.0 mg/kg/injection, schedule: Q04DX003 (ip), vehicle: saline): 115 % of control

SMILES: CN(C)c1ccc(/C=C2\C=Cc3ccccc32)cc1
- T/C [13]: 109 % of control
- T/C [14]: 90 % of control
- T/C [15]: 90 % of control

SMILES: O=C(O)c1ccc(NC(=O)C2C(=O)C(=O)N(c3ccc(C(=O)O)cc3)C2=O)cc1 (stereo unspecified)
- T/C [10]: 104 % of control
- T/C [11]: 100 % of control
- T/C [12]: 103 % of control

SMILES: O=[N+]([O-])c1c(N2CCN(CCO)CC2)ccc2nonc12
- T/C (dose: 50.0 mg/kg/injection, schedule: Q01DX009 (ip), vehicle: suspension in saline): 100 % of control
- T/C (dose: 100.0 mg/kg/injection, schedule: Q01DX009 (ip), vehicle: suspension in saline): 108 % of control

SMILES: CCCC(Sc1ccccc1)c1cc(OC)ccc1NC(C)=O (stereo unspecified)
- T/C [16]: 100 % of control
- T/C [17]: 100 % of control
- T/C [18]: 93 % of control

SMILES: CC(=O)C1(C(C)=O)C2=C(C(=O)C(Cl)=C(Cl)C2=O)N2C=CC=CC21 (stereo unspecified)
- T/C (dose: 100.0 mg/kg/injection, schedule: Q04DX002 (ip), vehicle: saline): 102 % of control
- T/C (dose: 200.0 mg/kg/injection, schedule: Q04DX002 (ip), vehicle: saline): 88 % of control

SMILES: O=c1c(=NO)c(=O)c2ccccc12
- T/C [16]: 103 % of control
- T/C [17]: 110 % of control

SMILES: CCC(CCC(C)C1CCC2C3CC=C4CC(OC(=O)CCC(=O)O)CCC4(C)C3CCC12C)C(C)C (stereo unspecified)
- T/C [13]: 95 % of control
- T/C [14]: 87 % of control
- T/C [15]: 87 % of control

SMILES: N#Cc1c(-c2ccccc2Cl)c(-c2ccccc2Cl)nn(CCO)c1=O
- T/C (dose: 25.0 mg/kg/injection, schedule: Q04DX002 (ip), vehicle: distilled water + Tween-80): 99 % of control
- T/C (dose: 50.0 mg/kg/injection, schedule: Q04DX002 (ip), vehicle: distilled water + Tween-80): 100 % of control
- T/C (dose: 100.0 mg/kg/injection, schedule: Q04DX002 (ip), vehicle: distilled water + Tween-80): 91 % of control
- T/C (dose: 200.0 mg/kg/injection, schedule: Q04DX002 (ip), vehicle: distilled water + Tween-80): 101 % of control

SMILES: COC1CCC2(C)C(=CCC3C2CCC2(C)C(OCCOS(=O)(=O)c4ccc(C)cc4)CCC32)C1 (stereo unspecified)
- T/C [16]: 101 % of control
- T/C [17]: 106 % of control
- T/C [18]: 100 % of control

SMILES: O=C1Nc2cnc(Cl)nc2Nc2ccc(Cl)cc21
- T/C [7]: 92 % of control
- T/C [8]: 99 % of control
- T/C [9]: 89 % of control

SMILES: COc1cccc(/C=C/c2cc3c(cc2Br)OCO3)c1
- T/C [7]: 102 % of control
- T/C [8]: 108 % of control
- T/C [9]: 101 % of control

SMILES: CS(=O)CC(=N\N)/C(CS(C)=O)=N/N (stereo unspecified)
- T/C (dose: 60.0 mg/kg/injection, schedule: Q01DX005 (ip), vehicle: saline): 100 % of control
- T/C (dose: 120.0 mg/kg/injection, schedule: Q01DX005 (ip), vehicle: saline): 95 % of control
- T/C (dose: 240.0 mg/kg/injection, schedule: Q01DX005 (ip), vehicle: saline): 102 % of control

SMILES: Cc1cccc2c1C(=O)N(CC[P+](c1ccccc1)(c1ccccc1)c1ccccc1)C2=O
- T/C (dose: 0.78 mg/kg/injection, schedule: Q01DX009 (ip), vehicle: water): 111 % of control
- T/C (dose: 1.33 mg/kg/injection, schedule: Q01DX009 (ip), vehicle: water): 115 % of control
- T/C (dose: 2.0 mg/kg/injection, schedule: Q01DX009 (ip), vehicle: water): 119 % of control
- T/C (dose: 3.0 mg/kg/injection, schedule: Q01DX009 (ip), vehicle: water): 121 % of control

SMILES: CN(C)CCOc1ccccn1
- T/C (dose: 50.0 mg/kg/injection, schedule: Q01DX009 (ip), vehicle: saline): 98 % of control
- T/C (dose: 100.0 mg/kg/injection, schedule: Q01DX009 (ip), vehicle: saline): 101 % of control

SMILES: COc1ccc2c(c1OC)C(=C(Cl)Cl)N1CCc3cc4c(cc3C1=C2C=O)OCO4
- T/C (dose: 12.5 mg/kg/injection, schedule: Q01DX005 (ip), vehicle: saline with Tween-80): 98 % of control
- T/C (dose: 25.0 mg/kg/injection, schedule: Q01DX005 (ip), vehicle: saline with Tween-80): 92 % of control
- T/C [1]: 90 % of control and 96 % of control

SMILES: O=C1C(Br)=C(Nc2ccccc2)C(=O)C(Br)=C1Nc1ccccc1
- T/C [7]: 98 % of control
- T/C [8]: 93 % of control

SMILES: O=C(CN=Cc1ccc(Cl)cc1Cl)NNC(=O)c1ccc(Cl)cc1Cl
- T/C [7]: 92 % of control
- T/C [8]: 96 % of control
- T/C [9]: 92 % of control
